From patent US6737383B1, “Herbicidal oxadiazolidines” (priority 1999, dated 2004)

How the values were obtained:
bedstraw = assay: Test B pre/postemergence bedstraw; assay type: in vivo, Galium aparine; conditions: Preemergence; for Bedstraw plant response rating: scale 0 to 10, 0 is no effect, 10 is complete control
Procedure, shortened: (§1)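 Response is a visual 0-to-10 score relative to untreated plants, where 0 means no effect and 10 means complete control, taken twelve to sixteen days after application. Treatments went onto soil at planting and onto foliage of 1- to 4-leaf plants, using a surfactant-containing non-phytotoxic solvent.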

blackgrass = assay: Test B pre/postemergence blackgrass; assay type: in vivo, Alopecurus myosuroides
Procedure, shortened: as §1

surinam grass = assay: Test B pre/postemergence surinam grass; assay type: in vivo, Brachiaria decumbens
Procedure, shortened: as §1

cocklebur = assay: Test B pre/postemergence cocklebur; assay type: in vivo, Xanthium strumarium
Procedure, shortened: as §1

corn = assay: Test B pre/postemergence corn; assay type: in vivo, Zea mays
Procedure, shortened: as §1

crabgrass = assay: Test B pre/postemergence crabgrass; assay type: in vivo, Digitaria sanguinalis
Procedure, shortened: as §1

giant foxtail = assay: Test B pre/postemergence giant foxtail; assay type: in vivo, Setaria faberii
Procedure, shortened: as §1

morningglory = assay: Test B pre/postemergence morningglory; assay type: in vivo, Ipomoea hederacea
Procedure, shortened: as §1

pigweed = assay: Test B pre/postemergence pigweed; assay type: in vivo, Amaranthus retroflexus
Procedure, shortened: as §1

rape = assay: Test B pre/postemergence rape; assay type: in vivo, Brassica napus
Procedure, shortened: as §1

soybean = assay: Test B pre/postemergence soybean; assay type: in vivo, Glycine max
Procedure, shortened: as §1

sugar beet = assay: Test B pre/postemergence sugar beet; assay type: in vivo, Beta vulgaris
Procedure, shortened: as §1

velvetleaf = assay: Test B pre/postemergence velvetleaf; assay type: in vivo, Abutilon theophrasti
Procedure, shortened: as §1

wheat = assay: Test B pre/postemergence wheat; assay type: in vivo, Triticum aestivum
Procedure, shortened: as §1

wild oat = assay: Test B pre/postemergence wild oat; assay type: in vivo, Avena fatua
Procedure, shortened: as §1

purple nutsedge = assay: Test B pre/postemergence purple nutsedge; assay type: in vivo, Cyperus rotundus
Procedure, shortened: as §1

rice = assay: Test B flood test rice; assay type: in vivo, Oryza sativa
Procedure, shortened: (§2)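 Plants were grown to the 2-leaf stage before treatment with test chemical, then held in a greenhouse for twelve to sixteen days. Injury was visually rated against untreated controls on a 0–10 scale, where 0 is no effect and 10 is complete control.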

smallflower flatsedge = assay: Test B flood test smallflower flatsedge; assay type: in vivo, Cyperus difformis
Procedure, shortened: as §2

duck salad = assay: Test B flood test duck salad; assay type: in vivo, Heteranthera limosa
Procedure, shortened: as §2

bamyardgrass = assay: Test B flood test barnyardgrass; assay type: in vivo, Echinochloa crus-galli
Procedure, shortened: as §2

[1] = Postemergence, Rate 125 g/ha, scale 0 to 10, 0 is no effect, 10 is complete control
[2] = Postemergence, Rate 250 g/ha, scale 0 to 10
[3] = Postemergence, Rate 500 g/ha, scale 0 to 10, 0 is no effect, 10 is complete control
[4] = Preemergence, Rate 62 g/ha, scale of 0 to 10 where 0 is no effect and 10 is complete control
[5] = Preemergence, Rate 125 g/ha, scale 0 to 10, 0 is no effect, 10 is complete control
[6] = Preemergence, Rate 250 g/ha, scale 0 to 10, 0 is no effect, 10 is complete control
[7] = Preemergence, Rate 500 g/ha, scale of 0 to 10 where 0 is no effect and 10 is complete control
[8] = Rate 62 g/ha, Postemergence, scale 0 to 10 (0 no effect, 10 complete control)
[9] = Rate 62 g/ha, flood test species, Pre-emergence, visual evaluation after twelve to sixteen days
[10] = Rate 125 g/ha, under heading Pre-emergence, flood test species, visual evaluation after twelve to sixteen days
[11] = Rate 250 g/ha, Pre-emergence (flood test species), scale 0 to 10, 0 is no effect, 10 is complete control
[12] = Rate 500 g/ha, Pre-emergence section of Table B, 0 to 10 scale (0 no effect, 10 complete control)

SMILES: CC(C)N(C(=O)n1oc(=O)n(CCCNC(=O)CCl)c1=O)c1ccccc1 [Compound 493]
- Plant response rating, Bedstraw (bedstraw; Rate 62 g/ha, scale of 0 to 10 where 0 is no effect and 10 is complete control): 0
- Bedstraw plant response rating (bedstraw; Rate 125 g/ha): 0
- Bedstraw plant response rating (bedstraw; Rate 250 g/ha): 0
- Bedstraw plant response rating (bedstraw; Rate 500 g/ha): 0
- Blackgrass plant response rating (blackgrass; [1]): 0
- Blackgrass plant response rating (blackgrass; [2]): 0
- Plant response rating, Blackgrass (blackgrass; [3]): 0
- Plant response rating, Blackgrass (blackgrass; [4]): 0
- Blackgrass plant response rating (blackgrass; [5]): 0
- Blackgrass plant response rating (blackgrass; [6]): 0
- Blackgrass plant response rating (blackgrass; [7]): 0
- Blackgrass plant response rating (blackgrass; [8]): 0
- B. signalgrass plant response rating (surinam grass; [1]): 0
- B. signalgrass plant response rating (surinam grass; Postemergence, Rate 250 g/ha, scale 0 to 10, 0 no effect, 10 complete control): 0
- Plant response rating, B. signalgrass (surinam grass; [3]): 0
- Plant response rating, B. signalgrass (surinam grass; [4]): 0
- B. signalgrass plant response rating (surinam grass; [5]): 0
- B. signalgrass plant response rating (surinam grass; [6]): 0
- B. signalgrass plant response rating (surinam grass; Preemergence, Rate 500 g/ha, scale 0 to 10, 0 is no effect, 10 is complete control): 0
- B. signalgrass plant response rating (surinam grass; [8]): 0
- Cocklebur plant response rating (cocklebur; [1]): 0
- Cocklebur plant response rating (cocklebur; [2]): 0
- Plant response rating, Cocklebur (cocklebur; [3]): 0
- Plant response rating, Cocklebur (cocklebur; [4]): 0
- Cocklebur plant response rating (cocklebur; [5]): 0
- Cocklebur plant response rating (cocklebur; [6]): 0
- Cocklebur plant response rating (cocklebur; [7]): 0
- Cocklebur plant response rating (cocklebur; [8]): 0
- Corn plant response rating (corn; [1]): 0
- Corn plant response rating (corn; [2]): 0
- Plant response rating, Corn (corn; [3]): 0
- Plant response rating, Corn (corn; [4]): 0
- Corn plant response rating (corn; [5]): 0
- Corn plant response rating (corn; [7]): 0
- Corn plant response rating (corn; [8]): 0
- Crabgrass plant response rating (crabgrass; [1]): 0
- Crabgrass plant response rating (crabgrass; [2]): 0
- Plant response rating, Crabgrass (crabgrass; [3]): 4
- Plant response rating, Crabgrass (crabgrass; [4]): 0
- Crabgrass plant response rating (crabgrass; [5]): 0
- Crabgrass plant response rating (crabgrass; [7]): 2
- Crabgrass plant response rating (crabgrass; [8]): 0
- Giant foxtail plant response rating (giant foxtail; [1]): 0
- Plant response rating, Giant foxtail (giant foxtail; [3]): 0
- Plant response rating, Giant foxtail (giant foxtail; [4]): 3
- Giant foxtail plant response rating (giant foxtail; [5]): 3
- Giant foxtail plant response rating (giant foxtail; [7]): 10
- Giant foxtail plant response rating (giant foxtail; [8]): 0
- Morningglory plant response rating (morningglory; [1]): 0
- Plant response rating, Morningglory (morningglory; [3]): 0
- Plant response rating, Morningglory (morningglory; [4]): 0
- Morningglory plant response rating (morningglory; [5]): 0
- Morningglory plant response rating (morningglory; [7]): 0
- Morningglory plant response rating (morningglory; [8]): 0
- Redroot pigweed plant response rating (pigweed; [1]): 0
- Plant response rating, Redroot pigweed (pigweed; [3]): 0
- Plant response rating, Redroot pigweed (pigweed; [4]): 0
- Redroot pigweed plant response rating (pigweed; [5]): 0
- Redroot pigweed plant response rating (pigweed; [7]): 0
- Redroot pigweed plant response rating (pigweed; [8]): 0
- Rape plant response rating (rape; [1]): 0
- Plant response rating, Rape (rape; [3]): 0
- Plant response rating, Rape (rape; [4]): 0
- Rape plant response rating (rape; [5]): 0
- Rape plant response rating (rape; [7]): 0
- Rape plant response rating (rape; [8]): 0
- Soybean plant response rating (soybean; [1]): 0
- Plant response rating, Soybean (soybean; [3]): 2
- Plant response rating, Soybean (soybean; [4]): 0
- Soybean plant response rating (soybean; [5]): 0
- Soybean plant response rating (soybean; [7]): 0
- Sugarbeets plant response rating (sugar beet; [1]): 0
- Plant response rating, Sugarbeets (sugar beet; [3]): 0
- Plant response rating, Sugarbeets (sugar beet; [4]): 0
- Sugarbeets plant response rating (sugar beet; [5]): 0
- Sugarbeets plant response rating (sugar beet; [7]): 0
- Sugarbeets plant response rating (sugar beet; [8]): 0
- Velvetleaf plant response rating (velvetleaf; [1]): 0
- Plant response rating, Velvetleaf (velvetleaf; [3]): 0
- Plant response rating, Velvetleaf (velvetleaf; [4]): 0
- Velvetleaf plant response rating (velvetleaf; [5]): 0
- Velvetleaf plant response rating (velvetleaf; [7]): 0
- Velvetleaf plant response rating (velvetleaf; [8]): 0
- Wheat plant response rating (wheat; [1]): 0
- Plant response rating, Wheat (wheat; [3]): 0
- Plant response rating, Wheat (wheat; [4]): 0
- Wheat plant response rating (wheat; [5]): 0
- Wheat plant response rating (wheat; [7]): 0
- Wheat plant response rating (wheat; [8]): 0
- Wild oats plant response rating (wild oat; [1]): 0
- Plant response rating, Wild oats (wild oat; [3]): 0
- Plant response rating, Wild oats (wild oat; [4]): 0
- Wild oats plant response rating (wild oat; [5]): 0
- Wild oats plant response rating (wild oat; [7]): 0
- Wild oats plant response rating (wild oat; [8]): 0
- Nutsedge plant response rating (purple nutsedge; [1]): 0
- Plant response rating, Nutsedge (purple nutsedge; [3]): 0
- Nutsedge plant response rating (purple nutsedge; [5]): 0
- Nutsedge plant response rating (purple nutsedge; [7]): 0
- Nutsedge plant response rating (purple nutsedge; [8]): 0
- Plant response rating, Rice (0 to 10 scale, 0 is no effect, 10 is complete control) (rice; [9]): 0
- Rice plant response rating (0 to 10 scale, 0 is no effect, 10 is complete control) (rice; [10]): 0
- Rice plant response rating (rice; [11]): 0
- Rice plant response rating (rice; [12]): 0
- Plant response rating, S. Flatsedge (0 to 10 scale, 0 is no effect, 10 is complete control) (smallflower flatsedge; [9]): 0
- S. Flatsedge plant response rating (0 to 10 scale, 0 is no effect, 10 is complete control) (smallflower flatsedge; [10]): 0
- S. Flatsedge plant response rating (smallflower flatsedge; [11]): 0
- S. Flatsedge plant response rating (smallflower flatsedge; [12]): 0
- Plant response rating, Ducksalad (0 to 10 scale, 0 is no effect, 10 is complete control) (duck salad; [9]): 0
- Ducksalad plant response rating (0 to 10 scale, 0 is no effect, 10 is complete control) (duck salad; [10]): 0
- Ducksalad plant response rating (duck salad; [11]): 0
- Ducksalad plant response rating (duck salad; [12]): 0
- Plant response rating, Barnyardgrass (0 to 10 scale, 0 is no effect, 10 is complete control) (bamyardgrass; [9]): 0
- Barnyardgrass plant response rating (0 to 10 scale, 0 is no effect, 10 is complete control) (bamyardgrass; [10]): 0
- Barnyardgrass plant response rating (bamyardgrass; [11]): 0
- Barnyardgrass plant response rating (bamyardgrass; [12]): 0
